Consider 6 compounds from ChEMBL document CHEMBL5370694, “Novel Pyrrole Derivatives as Apolipoprotein L-1 Inhibitors for Treating Kidney Diseases and Sepsis” (ACS Med Chem Lett, 2023).

A short description of assay [1]: Inhibition of APOL1 isoform G2 variant in human U2OS cells incubated for 80 mins by thallium flux based FLIPR assay. The format is cell-based.
For a further assay, the target named is T1, Apolipoprotein L1 (Homo sapiens, UniProt O14791).
T1 sequence (O14791 whole entry): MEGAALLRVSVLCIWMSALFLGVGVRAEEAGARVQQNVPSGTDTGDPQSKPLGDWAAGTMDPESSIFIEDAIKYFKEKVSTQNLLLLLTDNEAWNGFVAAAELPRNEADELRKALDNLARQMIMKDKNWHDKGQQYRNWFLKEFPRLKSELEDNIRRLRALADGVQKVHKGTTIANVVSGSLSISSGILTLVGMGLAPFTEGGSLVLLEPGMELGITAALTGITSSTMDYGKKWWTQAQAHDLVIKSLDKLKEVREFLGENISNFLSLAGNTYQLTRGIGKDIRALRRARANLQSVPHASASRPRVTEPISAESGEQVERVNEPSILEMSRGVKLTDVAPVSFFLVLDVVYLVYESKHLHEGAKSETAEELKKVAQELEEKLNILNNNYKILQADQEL
Kind of assay: Inhibition of wild type APOL1 containing G0 in human U2OS cells incubated for 80 mins by thallium flux based FLIPR assay. The format is cell-based.

As for `O=C(CCc1cc(-c2c(F)cc(F)cc2F)[nH]c1-c1ccc(Cl)cc1)N[C@@H]1C(=O)NC[C@H]1O`, the IC50 is 3.98 nM in assay [1] and 3.16 nM against Apolipoprotein L1.
For `O=C(CCc1cc(-c2c(F)cc(F)cc2Cl)[nH]c1-c1ccc(Cl)cc1)N[C@@H]1C(=O)NC[C@H]1O`, the IC50 in assay [1] is 0.794 nM; against Apolipoprotein L1 it was 0.501 nM.
On to `CC(C)(C)c1cc(CCC(=O)N[C@@H]2C(=O)NC[C@H]2O)c(-c2ccc(C(F)(F)F)cc2)[nH]1`, for which the results for the half-inhibitory concentration (IC50) (in assay [1]; against Apolipoprotein L1) were 5.01 nM and 1.58 nM, respectively.
On to `O=C(CCc1c(-c2ccc(Cl)cc2)[nH]c(C2(C(F)(F)F)CC2)c1F)N[C@@H]1C(=O)NC[C@H]1O`, for which the figures for the half-maximal inhibitory concentration (IC50) (in assay [1]; against Apolipoprotein L1) were 5.01 nM and 2 nM, respectively.
Consider `O=C(CCc1cc(C2(C(F)(F)F)CC2)[nH]c1-c1ccc(Cl)cc1)N[C@@H]1C(=O)NC[C@H]1O`, for which the IC50 was 3.98 nM in assay [1] and 2.51 nM on Apolipoprotein L1.
Consider `O=C(CCc1cc(C2(C(F)(F)F)CC2)[nH]c1-c1ccc(C(F)(F)F)cc1)N[C@@H]1C(=O)NC[C@H]1O`, for which the half-inhibitory concentration (IC50) in assay [1] is 5.01 nM; on Apolipoprotein L1, 2.51 nM.

By IC50 is commonly meant the midpoint of a concentration-inhibition curve. Lower therefore signals greater potency.
